According to ChEMBL document CHEMBL3885861, “Open TG-GATES”:

Species on record: Rattus norvegicus
Experiment: Open TG-GATES - Regimen: Single
Type: toxicity, organism-based, Sprague-Dawley
Design: regimen Single, gender Male, age 6 weeks
Details: in vivo, po, 500 mg/kg, route gavage, dose level High; for APTT / Bas / Eos / Fbg / Hb / Ht / Lym / MCH / MCHC / MCV / Mono / Neu / PT / Plat / RBC / Ret / WBC: tissue Blood; for KIDNEY_TOTAL: tissue Kidney; for LIVER: tissue Liver; for A/G / ALP / ALT / AST / BUN / CRE / Ca / Cl / DBIL / GLC / IP / K / LDH / Na / PL / RALB / TBIL / TC / TG / TP / gamma-GTP: tissue Plasma

How did the TERMINAL_BW (3 h) turn out when `CN(CCOc1ccc(CC2SC(=O)NC2=O)cc1)c1ccccn1.O=C(O)/C=C\C(=O)O` (centres undefined) [ROSIGLITAZONE MALEATE] was run?
Its TERMINAL_BW is 202.9 g.

What about the APTT (3 h) of the same compound?
The APTT was 16.4 s.

And the Bas (3 h)?
The Bas was 0%.

And the Eos (3 h)?
The Eos was 0.6%.

What about the Fbg (3 h) of the same compound?
Its Fbg is 224.2 mg/dL.

And the Hb (3 h)?
The Hb was 13 g/dL.

And the Ht (3 h)?
Its Ht is 39.4%.

What about the Lym (3 h) of the same compound?
The Lym was 77.6%.

What about the MCH (3 h) of the same compound?
Its MCH is 21.2 pg.

What about the MCHC (3 h) of the same compound?
Its MCHC is 33.1%.

What about the MCV (3 h) of the same compound?
Its MCV is 64.1 fL.

And the Mono (3 h)?
The Mono was 7.8%.

And the Neu (3 h)?
Its Neu is 14.2%.

And the PT (3 h)?
The PT was 12.3 s.

And the Plat (3 h)?
Its Plat is 129.2 x10_4/uL.

And the RBC (3 h)?
Its RBC is 613.8 x10_4/ul.

What about the Ret (3 h) of the same compound?
The Ret was 9.1%.

What about the WBC (3 h) of the same compound?
The WBC was 85.4 x10_2/uL.

What about the KIDNEY_TOTAL (3 h) of the same compound?
Its KIDNEY_TOTAL is 0.6 g.

And the LIVER (3 h)?
Its LIVER is 8.9 g.

And the A/G (3 h)?
Its A/G is 2.3.

And the ALP (3 h)?
Its ALP is 1535.8 IU/L.

And the ALT (3 h)?
The ALT was 35.8 IU/L.

What about the AST (3 h) of the same compound?
Its AST is 69.6 IU/L.

And the BUN (3 h)?
The BUN was 15 mg/dL.

What about the CRE (3 h) of the same compound?
Its CRE is 0.5 mg/dL.

What about the Ca (3 h) of the same compound?
The Ca was 11.6 mg/dL.

What about the Cl (3 h) of the same compound?
The Cl was 102.2 meq/L.

What about the DBIL (3 h) of the same compound?
The DBIL was 0.01 mg/dL.

What about the GLC (3 h) of the same compound?
The GLC was 185.2 mg/dL.

And the IP (3 h)?
The IP was 10.5 mg/dL.

And the K (3 h)?
Its K is 4.2 meq/L.

And the LDH (3 h)?
Its LDH is 76.8 IU/L.

What about the Na (3 h) of the same compound?
The Na was 140.4 meq/L.

What about the PL (3 h) of the same compound?
Its PL is 137 mg/dL.

And the RALB (3 h)?
Its RALB is 3.9 g/dL.

And the TBIL (3 h)?
The TBIL was 0.036 mg/dL.

And the TC (3 h)?
The TC was 84.2 mg/dL.

What about the TG (3 h) of the same compound?
The TG was 78 mg/dL.

What about the TP (3 h) of the same compound?
Its TP is 5.6 g/dL.

And the gamma-GTP (3 h)?
Its gamma-GTP is 1 IU/L.

And the TERMINAL_BW (6 h)?
The TERMINAL_BW was 206.5 g.

What about the APTT (6 h) of the same compound?
Its APTT is 16.5 s.

What about the Bas (6 h) of the same compound?
The Bas was 0%.

What about the Eos (6 h) of the same compound?
Its Eos is 1%.

What about the Fbg (6 h) of the same compound?
The Fbg was 217 mg/dL.

And the Hb (6 h)?
Its Hb is 13.2 g/dL.

And the Ht (6 h)?
Its Ht is 40%.

What about the Lym (6 h) of the same compound?
The Lym was 62.6%.

And the MCH (6 h)?
Its MCH is 21 pg.

What about the MCHC (6 h) of the same compound?
The MCHC was 32.9%.

What about the MCV (6 h) of the same compound?
The MCV was 63.8 fL.

And the Mono (6 h)?
The Mono was 11.6%.

What about the Neu (6 h) of the same compound?
The Neu was 24.8%.

What about the PT (6 h) of the same compound?
Its PT is 11.8 s.

And the Plat (6 h)?
Its Plat is 118.4 x10_4/uL.

And the RBC (6 h)?
Its RBC is 626.8 x10_4/ul.

And the Ret (6 h)?
The Ret was 9.7%.

And the WBC (6 h)?
The WBC was 75.4 x10_2/uL.

And the KIDNEY_TOTAL (6 h)?
The KIDNEY_TOTAL was 0.7 g.

What about the LIVER (6 h) of the same compound?
Its LIVER is 8.6 g.

What about the A/G (6 h) of the same compound?
Its A/G is 2.4.

And the ALP (6 h)?
Its ALP is 1138.8 IU/L.

What about the ALT (6 h) of the same compound?
The ALT was 30.8 IU/L.

And the AST (6 h)?
Its AST is 69 IU/L.

And the BUN (6 h)?
The BUN was 10 mg/dL.

What about the CRE (6 h) of the same compound?
The CRE was 0.5 mg/dL.

And the Ca (6 h)?
The Ca was 11 mg/dL.

What about the Cl (6 h) of the same compound?
Its Cl is 104 meq/L.

And the DBIL (6 h)?
Its DBIL is 0.014 mg/dL.

And the GLC (6 h)?
The GLC was 176.4 mg/dL.

And the IP (6 h)?
The IP was 10.6 mg/dL.

And the K (6 h)?
Its K is 4 meq/L.

And the LDH (6 h)?
Its LDH is 70.4 IU/L.

And the Na (6 h)?
Its Na is 139.6 meq/L.

What about the PL (6 h) of the same compound?
The PL was 140.4 mg/dL.

And the RALB (6 h)?
The RALB was 3.9 g/dL.

What about the TBIL (6 h) of the same compound?
The TBIL was 0.042 mg/dL.

And the TC (6 h)?
The TC was 89.2 mg/dL.

What about the TG (6 h) of the same compound?
The TG was 69.2 mg/dL.

And the TP (6 h)?
Its TP is 5.5 g/dL.

What about the gamma-GTP (6 h) of the same compound?
Its gamma-GTP is 1 IU/L.

And the TERMINAL_BW (9 h)?
The TERMINAL_BW was 203.4 g.

And the APTT (9 h)?
Its APTT is 17 s.

And the Bas (9 h)?
The Bas was 0%.

And the Eos (9 h)?
The Eos was 0.8%.

What about the Fbg (9 h) of the same compound?
Its Fbg is 211.4 mg/dL.

And the Hb (9 h)?
Its Hb is 12.4 g/dL.

And the Ht (9 h)?
Its Ht is 37.6%.

What about the Lym (9 h) of the same compound?
The Lym was 77.4%.

And the MCH (9 h)?
Its MCH is 21.5 pg.

And the MCHC (9 h)?
Its MCHC is 33%.

And the MCV (9 h)?
Its MCV is 65.2 fL.

And the Mono (9 h)?
Its Mono is 5.2%.

What about the Neu (9 h) of the same compound?
Its Neu is 16.6%.

And the PT (9 h)?
The PT was 12.4 s.

And the Plat (9 h)?
Its Plat is 128.2 x10_4/uL.

And the RBC (9 h)?
Its RBC is 577 x10_4/ul.

What about the Ret (9 h) of the same compound?
The Ret was 9.1%.

And the WBC (9 h)?
Its WBC is 77.4 x10_2/uL.

And the KIDNEY_TOTAL (9 h)?
Its KIDNEY_TOTAL is 0.6 g.

And the LIVER (9 h)?
Its LIVER is 7.9 g.

And the A/G (9 h)?
Its A/G is 2.6.

And the ALP (9 h)?
The ALP was 1267.6 IU/L.

What about the ALT (9 h) of the same compound?
Its ALT is 28.2 IU/L.

And the AST (9 h)?
The AST was 65.4 IU/L.

And the BUN (9 h)?
Its BUN is 12 mg/dL.

What about the CRE (9 h) of the same compound?
The CRE was 0.4 mg/dL.

And the Ca (9 h)?
Its Ca is 11.8 mg/dL.

What about the Cl (9 h) of the same compound?
Its Cl is 104.2 meq/L.

And the DBIL (9 h)?
Its DBIL is 0.016 mg/dL.

What about the GLC (9 h) of the same compound?
The GLC was 180.8 mg/dL.

What about the IP (9 h) of the same compound?
Its IP is 10.9 mg/dL.

What about the K (9 h) of the same compound?
The K was 4.6 meq/L.

And the LDH (9 h)?
Its LDH is 94.6 IU/L.

What about the Na (9 h) of the same compound?
The Na was 139.8 meq/L.

What about the PL (9 h) of the same compound?
Its PL is 114.8 mg/dL.

And the RALB (9 h)?
The RALB was 3.9 g/dL.

What about the TBIL (9 h) of the same compound?
The TBIL was 0.048 mg/dL.

What about the TC (9 h) of the same compound?
Its TC is 63.6 mg/dL.

What about the TG (9 h) of the same compound?
The TG was 68.6 mg/dL.

And the TP (9 h)?
The TP was 5.4 g/dL.

And the gamma-GTP (9 h)?
Its gamma-GTP is 0.4 IU/L.

What about the TERMINAL_BW (24 h) of the same compound?
The TERMINAL_BW was 222.1 g.

What about the APTT (24 h) of the same compound?
The APTT was 16.4 s.

And the Bas (24 h)?
The Bas was 0%.

What about the Eos (24 h) of the same compound?
The Eos was 1.2%.

And the Fbg (24 h)?
The Fbg was 212.6 mg/dL.

What about the Hb (24 h) of the same compound?
The Hb was 12.3 g/dL.

What about the Ht (24 h) of the same compound?
The Ht was 37.6%.

What about the Lym (24 h) of the same compound?
The Lym was 65.6%.

And the MCH (24 h)?
Its MCH is 21.3 pg.

And the MCHC (24 h)?
The MCHC was 32.7%.

What about the MCV (24 h) of the same compound?
Its MCV is 65.1 fL.

And the Mono (24 h)?
Its Mono is 8.4%.

What about the Neu (24 h) of the same compound?
The Neu was 24.8%.

What about the PT (24 h) of the same compound?
The PT was 12.1 s.

And the Plat (24 h)?
The Plat was 128.4 x10_4/uL.

What about the RBC (24 h) of the same compound?
The RBC was 578.4 x10_4/ul.

And the Ret (24 h)?
The Ret was 8.4%.

And the WBC (24 h)?
The WBC was 96 x10_2/uL.

What about the KIDNEY_TOTAL (24 h) of the same compound?
Its KIDNEY_TOTAL is 0.7 g.

And the LIVER (24 h)?
The LIVER was 10.3 g.

And the A/G (24 h)?
The A/G was 2.7.

And the ALP (24 h)?
Its ALP is 1526.8 IU/L.

And the ALT (24 h)?
Its ALT is 34.6 IU/L.

And the AST (24 h)?
Its AST is 65.2 IU/L.

And the BUN (24 h)?
Its BUN is 18 mg/dL.

What about the CRE (24 h) of the same compound?
The CRE was 0.4 mg/dL.

What about the Ca (24 h) of the same compound?
The Ca was 11.1 mg/dL.

And the Cl (24 h)?
The Cl was 104.2 meq/L.

What about the DBIL (24 h) of the same compound?
The DBIL was 0.02 mg/dL.

And the GLC (24 h)?
The GLC was 183.8 mg/dL.

And the IP (24 h)?
Its IP is 7.9 mg/dL.

And the K (24 h)?
Its K is 4.6 meq/L.

And the LDH (24 h)?
Its LDH is 87.6 IU/L.

And the Na (24 h)?
Its Na is 140.4 meq/L.

And the PL (24 h)?
Its PL is 127 mg/dL.

And the RALB (24 h)?
Its RALB is 3.9 g/dL.

And the TBIL (24 h)?
The TBIL was 0.03 mg/dL.

What about the TC (24 h) of the same compound?
The TC was 70.2 mg/dL.

And the TG (24 h)?
The TG was 113.6 mg/dL.

What about the TP (24 h) of the same compound?
Its TP is 5.3 g/dL.

What about the gamma-GTP (24 h) of the same compound?
The gamma-GTP was 1 IU/L.
